Counter-ions that a name gives are not always drawn.
Experiment: in vitro
Conditions: rat, gh3-tre-luc cells, AC50 (uM) modified / 1000
Compound CCCCc1ccc2[nH]c(NC(=O)OC)nc2c1 [Parbendazole] has a CC50 at 24 h of 0.0667 µM.
With CC(C)C1(C)N=C(c2nc3ccccc3cc2C(=O)O)NC1=O (stereo not shown) [Imazaquin] the CC50 at 24 h was greater than 90 µM.
CCCCCCCCCCCC(=O)O [Dodecanoic acid] showed a CC50 at 24 h greater than 90 µM.
With CN1C(=O)NC(=O)C(C)(C2=CCCCC2)C1=O (stereo not shown) [Hexobarbital] the CC50 at 24 h was greater than 50 µM.
Work on CC(=O)OC1CCCCC1C(C)(C)C (stereo not shown) [2-tert-Butylcyclohexyl acetate] yielded a CC50 at 24 h greater than 90 µM.
With O=C(OCC(O)CO)c1ccccc1Nc1ccnc2cc(Cl)ccc12 (stereo not shown) [Glafenine hydrochloride] the CC50 at 24 h was greater than 20 µM.
With O=C(O)CC(O)C(=O)O (stereo not shown) [Malic acid] the CC50 at 24 h was greater than 90 µM.
For N#CCCOCCOCCC#N [3,3'-(Ethylenedioxy)dipropiononitrile], the CC50 at 24 h was greater than 90 µM.
With CCCN(CC)C(CC)C(=O)Nc1c(C)cccc1C (stereo not shown) [Etidocaine] the CC50 at 24 h was greater than 50 µM.
With Nc1nc(F)nc2c1ncn2[C@@H]1O[C@H](CO)[C@@H](O)[C@@H]1O [Fludarabine] the CC50 at 24 h was 52 µM.
In the case of CCCCCCn1cc[n+](C)c1 [1-Hexyl-3-methylimidazolium trifluoromethanesulfonate], the CC50 at 24 h is reported as greater than 90 µM.
COC1=CC(=O)O[C@@H](CCc2ccccc2)C1 [Dihydrokavain] showed a CC50 at 24 h greater than 100 µM.
In the case of CC(C)CC(C)(N)C#N (stereo not shown) [2-Amino-2,4-dimethylpentanenitrile], the CC50 at 24 h is reported as greater than 90 µM.
In the case of C[C@H](CCC(=O)O)[C@H]1CC[C@H]2[C@@H]3C(=O)C[C@@H]4CC(=O)CC[C@]4(C)[C@H]3CC(=O)[C@]12C [Dehydrocholic acid], the CC50 at 24 h is reported as greater than 50 µM.
With OCC(CO)N[C@H]1C[C@](O)(CO)[C@@H](O)[C@H](O)[C@H]1O [Voglibose] the CC50 at 24 h was greater than 50 µM.
CC(=O)Nc1ccc(S(N)(=O)=O)cc1 [4'-Sulfamylacetanilide] gave a CC50 at 24 h greater than 90 µM.
For CC1(C)OC(=O)NC1=O [Dimethadione], the CC50 at 24 h was greater than 90 µM.
Work on CCC(=C(CC)c1ccc(O)cc1)c1ccc(O)cc1 [(Z,E)-Diethylstilbestrol] yielded a CC50 at 24 h of 12.2 µM.
O=C(O)[C@H](O)[C@@H](O)[C@H](O[C@@H]1O[C@H](CO)[C@H](O)[C@H](O)[C@H]1O)[C@H](O)CO [Lactobionic acid] showed a CC50 at 24 h greater than 20 µM.
In the case of CCN1CCN(C(=O)N[C@@H](C(=O)N[C@@H]2C(=O)N3[C@@H]2SC(C)(C)[C@@H]3C(=O)O)c2ccccc2)C(=O)C1=O [Piperacillin sodium salt], the CC50 at 24 h is reported as greater than 50 µM.
Compound C[N+]1(C)[C@@H]2C[C@@H](OC(=O)C(O)(c3cccs3)c3cccs3)C[C@H]1[C@@H]1O[C@@H]12 [Tiotropium bromide] has a CC50 at 24 h greater than 50 µM.
Compound CC(=O)N[C@@H](CS)C(=O)O [N-Acetyl-L-cysteine] has a CC50 at 24 h greater than 90 µM.
With C=C[C@@]1(C)CC(=O)[C@]2(O)[C@@]3(C)[C@@H](O)CCC(C)(C)[C@@H]3[C@H](O)[C@H](OC(C)=O)[C@@]2(C)O1 [Forskolin] the CC50 at 24 h was greater than 90 µM.
With CSc1ccc2c(c1)N(CCC1CCCCN1C)c1ccccc1S2 (stereo not shown) [Thioridazine hydrochloride] the CC50 at 24 h was 7.04 µM.
C[Si](NC1CCCCC1)(NC1CCCCC1)NC1CCCCC1 [N,N',N''-Tricyclohexyl-1-methylsilanetriamine] gave a CC50 at 24 h greater than 90 µM.
CCCCCCOc1ccc(O)cc1 [4-(Hexyloxy)phenol] gave a CC50 at 24 h of 25.3 µM.
Work on COc1ccc(C(=O)c2ccc(O)cc2)c(OC)c1 [(2,4-dimethoxyphenyl)(4-hydroxyphenyl)methanone] yielded a CC50 at 24 h greater than 90 µM.
With Cc1cc(O)c(C(C)C)cc1Cl [6-Chlorothymol] the CC50 at 24 h was 66.1 µM.
CCOC(=O)CC(C(C)=O)C(C)=O [Ethyl 3-acetyl-4-oxopentanoate] showed a CC50 at 24 h greater than 90 µM.
CCCCNCC [N-Ethyl-N-butylamine] gave a CC50 at 24 h greater than 90 µM.
Compound Oc1ccc(-c2ccccc2)cc1Cl [2-Chloro-4-phenylphenol] has a CC50 at 24 h of 81 µM.
For Cc1cc(C(C)(C)c2cc(C)c(O)c(C)c2)cc(C)c1O [4,4'-Propane-2,2-diylbis(2,6-dimethylphenol)], the CC50 at 24 h was 16.9 µM.
COc1ccccc1/C=C/C=O [trans-2-Methoxycinnamaldehyde] showed a CC50 at 24 h greater than 90 µM.
COc1c(N2C[C@@H]3CCCN[C@@H]3C2)c(F)cc2c(=O)c(C(=O)O)cn(C3CC3)c12 [Moxifloxacin hydrochloride] gave a CC50 at 24 h greater than 50 µM.
Compound CCCCOc1ccc(C(=O)CCN2CCCCC2)cc1 [Dyclonine hydrochloride] has a CC50 at 24 h of 4.72 µM.
In the case of Nc1ncnc2c1ncn2[C@@H]1O[C@H](CO)[C@@H](O)[C@H]1O [Adenosine], the CC50 at 24 h is reported as greater than 50 µM.
Work on CC1=C(O)C(=O)OC1C (stereo not shown) [4,5-Dimethyl-3-hydroxy-2,5-dihydrofuran-2-one] yielded a CC50 at 24 h greater than 90 µM.
With CC(C)(C)C(=O)CCc1ccc(Cl)cc1 [1-(4-Chlorophenyl)-4,4-dimethyl-pentan-3-one] the CC50 at 24 h was greater than 90 µM.
CCOc1cc([N+](=O)[O-])c(OCC)cc1N1CCOCC1 [4-(2,5-Diethoxy-4-nitrophenyl)morpholine] showed a CC50 at 24 h greater than 90 µM.
Compound O=S(=O)(Cl)c1ccccc1 [Benzenesulfonyl chloride] has a CC50 at 24 h greater than 90 µM.
In the case of CO/N=C(\C(=O)N[C@@H]1C(=O)N2C(C(=O)[O-])=C(C[n+]3cccc4c3CCC4)CS[C@H]12)c1csc(N)n1 [Cefpirome sulfate], the CC50 at 24 h is reported as greater than 50 µM.
With CC(C)Nc1ccc(NC(C)C)c2c1C(=O)c1ccccc1C2=O [1,4-Bis(N-isopropylamino)anthraquinone] the CC50 at 24 h was greater than 50 µM.
CCOC(=O)[C@H](CCc1ccccc1)N[C@H]1CCCN2CCC[C@@H](C(=O)O)N2C1=O [Cilazapril] gave a CC50 at 24 h greater than 50 µM.
In the case of CC(=O)N[C@H]1C(O)O[C@H](CO)[C@H](O)[C@@H]1O (stereo partly shown) [N-Acetylgalactosamine], the CC50 at 24 h is reported as greater than 50 µM.
CC(C)c1ccc2cc(C(C)C)ccc2c1 [2,6-Diisopropylnaphthalene] gave a CC50 at 24 h greater than 90 µM.
Work on Cc1cccc(C(=O)O)c1[N+](=O)[O-] [3-Methyl-2-nitrobenzoic acid] yielded a CC50 at 24 h greater than 90 µM.
Compound CC(C)Cc1ccc(CC(=O)O)cc1 [Ibufenac] has a CC50 at 24 h greater than 50 µM.
COc1cc(NC(C)CCCN)c2ncccc2c1 (stereo not shown) [Primaquine diphosphate] showed a CC50 at 24 h of 15 µM.
CCCCCC1CCC(=O)O1 (stereo not shown) [gamma-Nonanolactone] showed a CC50 at 24 h greater than 90 µM.
Work on CCCCCCCCCCCCCCCC(=O)OC/C=C(C)/C=C/C=C(C)/C=C/C1=C(C)CCCC1(C)C [Retinol palmitate] yielded a CC50 at 24 h greater than 50 µM.
In the case of Nc1nc(=O)n([C@@H]2CS[C@H](CO)O2)cc1F [Emtricitabine], the CC50 at 24 h is reported as greater than 50 µM.
O=C(O)CCc1ccccc1 [Hydrocinnamic acid] showed a CC50 at 24 h greater than 90 µM.
For COC(=O)c1ccccc1 [Methyl benzoate], the CC50 at 24 h was greater than 90 µM.
CC1(C)S[C@@H]2[C@H](NC(=O)C3(N)CCCCC3)C(=O)N2[C@H]1C(=O)O [Cyclacillin] gave a CC50 at 24 h greater than 50 µM.
C[C@@H]1C[C@H]2[C@@H]3CCC4=CC(=O)C=C[C@]4(C)[C@@]3(Cl)[C@@H](O)C[C@]2(C)[C@@]1(OC(=O)c1ccco1)C(=O)CCl [Mometasone furoate] showed a CC50 at 24 h greater than 20 µM.
Compound Brc1ccc(Br)c(Br)c1 [1,2,4-Tribromobenzene] has a CC50 at 24 h greater than 90 µM.
With Fc1ccc(Oc2ccnc3cc(Cl)cc(Cl)c23)cc1 [Quinoxyfen] the CC50 at 24 h was 74.9 µM.
With O=C(Nc1ccc(Cl)c(Cl)c1)c1cc(Cl)cc(Cl)c1O [3,5-Dichlorosalicyl-3,4-dichloroanilide] the CC50 at 24 h was 2.97 µM.
In the case of O=C(O)/C=C\C(=O)O [Maleic acid], the CC50 at 24 h is reported as greater than 90 µM.
O=C(NCNC(=O)NC1C(=O)NC(=O)N1CO)NC1C(=O)NC(=O)N1CO (stereo not shown) [Imidazolidinyl urea] gave a CC50 at 24 h greater than 90 µM.
Compound CC1(C)S[C@@H]2[C@H](NC(=O)C(c3ccccc3)S(=O)(=O)O)C(=O)N2[C@H]1C(=O)O (stereo partly shown) [Sulbenicillin disodium] has a CC50 at 24 h greater than 50 µM.
For CCOC(=O)C=CC(=O)O [4-Ethoxy-4-oxobut-2-enoic acid], the CC50 at 24 h was greater than 90 µM.
Compound CCCN(CCC)c1c([N+](=O)[O-])cc(C(F)(F)F)c(N)c1[N+](=O)[O-] [Prodiamine] has a CC50 at 24 h of 14.5 µM.
O=C(O)CCC/C=C\C[C@@H]1[C@@H](/C=C/[C@@H](O)COc2cccc(C(F)(F)F)c2)[C@H](O)C[C@@H]1O (racemic) [Fluprostenol] gave a CC50 at 24 h greater than 50 µM.
With CCN(CC)C(C)CN1c2ccccc2Sc2ccccc21 (stereo not shown) [Ethopropazine hydrochloride] the CC50 at 24 h was 10.7 µM.
For CC12CCC(C[N+](C)(CCC[N+](C)(C)C)C1)C2(C)C (stereo not shown) [Trimethidinium methyl sulfate], the CC50 at 24 h was greater than 50 µM.
For CCNc1nc(NC(C)C)nc(SC)n1 [Ametryn], the CC50 at 24 h was greater than 90 µM.
With Nc1cc(Cl)c(N)c(Cl)c1 [2,6-Dichloro-1,4-benzenediamine] the CC50 at 24 h was greater than 90 µM.
For OCC(O)c1ccccc1 (stereo not shown) [Styrene glycol], the CC50 at 24 h was greater than 90 µM.
Compound CC(C)[C@@H]1CC[C@@H](C)CC1=O [(2S,5R)-5-Methyl-2-(propan-2-yl)cyclohexanone] has a CC50 at 24 h greater than 90 µM.
CCCCCCCCCCCCCCO [1-Tetradecanol] gave a CC50 at 24 h greater than 90 µM.
O=c1[nH]cnc2[nH]cc(CN3CCCCC3)c12 [5-(Piperidin-1-ylmethyl)-3,7-dihydro-4H-pyrrolo[2,3-d]pyrimidin-4-one] showed a CC50 at 24 h greater than 50 µM.
C[N+](C)(C)CCOC(N)=O [Carbachol] showed a CC50 at 24 h greater than 50 µM.
With C[C@@H]1CC[C@H]2[C@@H](C)C(=O)O[C@@H]3O[C@@]4(C)CC[C@@H]1[C@]32OO4 [Artemisinin] the CC50 at 24 h was 4.4 µM.
With CN(C)CC/C=C1/c2ccccc2COc2ccc(CC(=O)O)cc21 [Olopatadine hydrochloride] the CC50 at 24 h was greater than 50 µM.

Same assay, conditions: rat, gh3-tre-luc cells, AC50 (uM) modified / 1000, Tox21_110001=Tox21_111026; viability, 1 nM T3 present, 24 h
For O=C1CCO1 [beta-Propiolactone], the CC50 at 24 h was greater than 50 µM.

Same assay, conditions: rat, gh3-tre-luc cells, AC50 (uM) modified / 1000, Tox21_110001=Tox21_112123; viability, 1 nM T3 present, 24 h
CNC(=O)NC(O)C(Cl)(Cl)Cl (stereo not shown) [Mecloralurea] showed a CC50 at 24 h greater than 50 µM.

Same assay, conditions: rat, gh3-tre-luc cells, AC50 (uM) modified / 1000, Tox21_110001=Tox21_201394; viability, 1 nM T3 present, 24 h
With CC(C)Nc1nc(Cl)nc(NC(C)C)n1 [Propazine] the CC50 at 24 h was greater than 90 µM.

Same assay, conditions: rat, gh3-tre-luc cells, AC50 (uM) modified / 1000, Tox21_110001=Tox21_202917; viability, 1 nM T3 present, 24 h
Work on C1CS1 [Ethylene sulfide] yielded a CC50 at 24 h greater than 90 µM.

Source: PMC6792352, “Limited Chemical Structural Diversity Found to Modulate Thyroid Hormone Receptor in the Tox21 Chemical Library” (Environmental Health Perspectives, 2019)
